Data on five compounds can be found in patent US20220249441A1, “Homodimeric Tobramycin Adjuvant Repurposes Novobiocin as an Effective Antibacterial Agent Against Gram-Negative Bacteria” (priority 2019, published 2022).

Series [1] has as its system P. aeruginosa. In words: Checkerboard assay (antibiotic + adjuvant combination MIC). It counts as cell-based, Pseudomonas aeruginosa.
Series [2] concerns A. baumannii ATCC 17978 and resistant mutants. Put plainly: microbe, parasite or virus in culture. In kind it is cell-based, Acinetobacter baumannii. The protocol: Antimicrobial Susceptibility Assay. The in vitro antimicrobial activity of all compounds/antibiotics against a panel of bacteria was evaluated by microbroth dilution method in accordance with the Clinical and Laboratory Standards Institute (CLSI) guidelines (using ATCC strains as quality control strains) (54). Overnight grown bacterial cultures were diluted in saline to achieve a 0.5 McFarland turbidity, followed by 1:50 dilution in Mueller-Hinton broth (MHB) for inoculation to a final concentration of approximately 5×10^5 CFU/mL. […] The lowest concentration that prevented the visible growth of bacteria was defined as the MIC for each antimicrobial agent. The broth with or without bacterial cells was used as positive or negative control, respectively.
(§1) Development of Resistance Study. […] Tobramycin and colistin were included as controls. At 24-hour intervals, the cultures were assessed for growth. […] This serial passaging was repeated for 8 days.

The test system of series [3] is MDR/XDR P. aeruginosa, Acinetobacter baumannii, Escherichia coli, Klebsiella pneumoniae, and Enterobacter cloacae. In kind it is cell-based. As for the experimental part:
Next, we investigated whether tobramycin by itself would potentiate novobiocin against Gram-negative bacteria.
Checkerboard Assay. Combination studies with different antibiotics were performed in 96-well plates as previously described (19). Briefly, the antibiotic of interest was serially diluted in MHB along the abscissa while the adjuvant (tobramycin homodimer) was serially diluted in MHB along the ordinate. This creates a 10×7 matrices wherein each well consists of a combination of different antibiotic and adjuvant concentrations. Overnight grown bacterial cultures were diluted in saline to achieve a 0.5 McFarland turbidity, followed by 1:50 dilution in Mueller-Hinton broth (MHB) for inoculation to a final concentration of approximately 5×10^5 CFU/mL. […] MIC was recorded as wells with the lowest concentration of drugs with no bacterial growth. The fractional inhibitory concentration (FIC) for each antibiotic was calculated by dividing the MIC of the antibiotic in the presence of adjuvant by the MIC of the antibiotic alone. Similarly, the FIC of adjuvant was calculated by dividing the MIC of the adjuvant in the presence of antibiotic by the MIC of the adjuvant alone. FIC index is the sum of both FICs. FIC indices of ≤0.5 were deemed synergistic; >0.5-4, no interaction; and >4, antagonistic.

Series [4] has as its system porcine erythrocytes.
Description: Hemolytic Assay. The hemolytic activities of the newly synthesized compounds were determined and quantified as the amount of hemoglobin released by lysing porcine erythrocytes. […] The final cell concentration used was 3×10^8 cells/mL. Compounds were serially diluted with PBS and added to wells in a 96-well plate at twice the desired concentrations. […] Intact erythrocytes were subsequently pelleted by centrifuging at 1000 g at 4° C. for 10 mins, and the supernatants were transferred to a new 96-well plate. […] Blood cells in PBS (0% hemolysis) and 0.1% Triton X-100 (100% hemolysis) were used as negative and positive controls, respectively. Percent hemolysis was calculated as [% hemolysis=(X−0%)/(100%−0%)], where X is the optical density values of the compounds at different concentrations (49).
Series [5] deals with P. aeruginosa PAO1 and efflux deficient mutants, MDR/XDR isolates. In words: microbe, parasite or virus in culture. Conditions: Pseudomonas aeruginosa. It counts as cell-based, Pseudomonas aeruginosa. The protocol: Antimicrobial Susceptibility Assay. The in vitro antimicrobial activity of all compounds/antibiotics against a panel of bacteria was evaluated by microbroth dilution method in accordance with the Clinical and Laboratory Standards Institute (CLSI) guidelines (using ATCC strains as quality control strains) (54). […] The broth with or without bacterial cells was used as positive or negative control, respectively.

The subject of series [6] is P. aeruginosa PAO1. In words: Outer membrane permeabilization assay (NPN uptake). In kind it is cell-based, Pseudomonas aeruginosa. The protocol: Outer Membrane Permeabilization Assay. […] Briefly, an overnight grown P. aeruginosa PAO1 culture was subcultured (1 in 100) in fresh LB broth and grown to a mid-logarithmic phase (approximately 2 h, OD600=0.5-0.6). The cells were harvested by centrifuging for 10 min at 1000 g and room temperature, washed twice in PBS, and resuspended in half volume of PBS. This suspension was used in standard microtiter plate assay. […] PMBN, a known outer membrane permeabilizer, served as a positive control while cells +NPN (without test compounds) served as a negative control. Four independent replicates were conducted, and the data were corrected for any background fluorescence.

The test system of series [7] is A. baumannii ATCC 17978. In words: microbe, parasite or virus in culture. It counts as cell-based, Acinetobacter baumannii. To be noted: for fold change in MIC: after 7 days of serial passaging. The protocol:
as §1

For series [8], the system named is Galleria mellonella. In words: Galleria mellonella tolerability study. Conditions: 100 mg/kg single dose; after 96 h (4 days). In kind it is in vivo. The protocol: Galleria mellonella In vivo Larvae-Infection Model. In vivo synergistic effects were determined using Galleria mellonella infection model, as previously described (49). Briefly, larvae were purchased from The Worm Lady Live Feeder (ON, Canada), stored in their natural habitat at 16° C., and used within 10 days of delivery. The larvae (average weight of 250 mg) were used for tolerability and efficacy studies. Tolerability study was performed by injecting a 10 μL aliquot of antimicrobial agents only at concentrations equivalent to 100 mg/kg or 200 mg/kg. The larvae (ten in each group) were incubated at 37° C. and monitored for 96 h. For efficacy studies, the virulence and bacterial load required to kill 100% of the larvae within 24 h (with no treatment) was first determined, which is approximately 10 CFU. Overnight grown culture of respective MDR A. baumannii isolate was standardized to 0.5 McFarland standard and diluted in PBS to a final concentration of 10^3 CFU/mL. A 10 μL aliquot of this solution (˜10 CFU) was injected into each larva and incubated for 3 h at 37° C. […] Larvae treated with 10 μL of PBS or high concentrations of test antibiotics served as negative and positive control, respectively. The larvae were incubated at 37° C. in Petri dishes lined with filter paper and scored for survivability every 6 h for up to 36 h. […]

Where [9] appears, read: Acinetobacter baumannii, ATCC17978, 18 h, Mutant C (seven serial passages, sub-MICs novobiocin + 7.1 μM compound 1).
The mark [10] stands for this setting: Acinetobacter baumannii, ATCC17978, Mutant A (seven serial passages, sub-MICs novobiocin).
[11] abbreviates: Acinetobacter baumannii, ATCC17978, Mutant B (seven serial passages, sub-MICs colistin).
Setting [12] is: Acinetobacter baumannii, ATCC17978, Wild-type A. baumannii ATCC 17978.
Setting [13] is: tobramycin-resistant MDR/XDR isolates.

≈ marks a conversion by molar mass, not a printed value.

Take `CC(C)(O/N=C(\C(=O)N[C@@H]1C(=O)N2C(C(=O)[O-])=C(C[n+]3ccccc3)CS[C@H]12)c1csc(N)n1)C(=O)O` [Ceftazidime, reference compound]: in series [1] (P. aeruginosa PAO1, β-lactam antibiotic alone), the MIC Alone is 2 µg/mL. For the same compound, the MIC of CAZ alone in series [1] (PA 259-96918) came to 512 µg/mL; in series [1] (PA 260-97103), 32 µg/mL; in series [1] (PA 262-101856), 16 µg/mL; in series [1] (PA 264-104354), 128 µg/mL; in series [1] (PA 86052), 64 µg/mL; in series [1] (PA 88949), 64 µg/mL. The MIC of CAZ alone worked out at 4 µg/mL in series [1] (PA 91433); 8 µg/mL in series [1] (PA 100036); 64 µg/mL in series [1] (PA 101243); 8 µg/mL in series [1] (PA 101885); 128 µg/mL in series [1] (PA 107092); 32 µg/mL in series [1] (PA 108590). In addition, the MIC of CAZ alone in series [1] (PA 109084) stood at 64 µg/mL; in series [1] (PA 114228) it was 8 µg/mL; in series [1] (PAO1) it was 2 µg/mL; in series [1] (PAO200 (efflux-deficient)), 1 µg/mL; in series [1] (PAO750 (efflux-deficient)), 0.5 µg/mL. Further, the MIC in series [2] (setting [9]) was determined as 16 µg/mL; in series [2] (setting [10]) it was 32 µg/mL (≈ 58.5 µM); in series [2] (setting [11]), 1 µg/mL (≈ 1.83 µM); in series [2] (setting [12]), 16 µg/mL (≈ 29.3 µM). Also, in series [3] (Gram-negative bacteria), the synergy with novobiocin result is “did not show any synergy”.

Take `NC[C@H]1O[C@H](O[C@H]2[C@H](OCCCCCCn3cc(CCCCO[C@@H]4[C@@H](O[C@H]5O[C@H](CO)[C@@H](O)[C@H](N)[C@H]5O)[C@H](N)C[C@H](N)[C@H]4O[C@H]4O[C@H](CN)[C@@H](O)C[C@H]4N)nn3)[C@@H](O[C@H]3O[C@H](CO)[C@@H](O)[C@H](N)[C@H]3O)[C@H](N)C[C@@H]2N)[C@H](N)C[C@@H]1O.O=C(O)C(F)(F)F.O=C(O)C(F)(F)F.O=C(O)C(F)(F)F.O=C(O)C(F)(F)F.O=C(O)C(F)(F)F.O=C(O)C(F)(F)F.O=C(O)C(F)(F)F.O=C(O)C(F)(F)F.O=C(O)C(F)(F)F.O=C(O)C(F)(F)F` [Compound 2, Tobramycin Homodimer 2]: the “hemolysis of porcine erythrocytes” value in series [4] is listed as “non-hemolytic”.

Turning to `NC[C@H]1O[C@H](O[C@H]2[C@H](OCCCCCCCCn3cc(CCCCO[C@@H]4[C@@H](O[C@H]5O[C@H](CO)[C@@H](O)[C@H](N)[C@H]5O)[C@H](N)C[C@H](N)[C@H]4O[C@H]4O[C@H](CN)[C@@H](O)C[C@H]4N)nn3)[C@@H](O[C@H]3O[C@H](CO)[C@@H](O)[C@H](N)[C@H]3O)[C@H](N)C[C@@H]2N)[C@H](N)C[C@@H]1O.O=C(O)C(F)(F)F.O=C(O)C(F)(F)F.O=C(O)C(F)(F)F.O=C(O)C(F)(F)F.O=C(O)C(F)(F)F.O=C(O)C(F)(F)F.O=C(O)C(F)(F)F.O=C(O)C(F)(F)F.O=C(O)C(F)(F)F.O=C(O)C(F)(F)F` [Compound 3, Tobramycin Homodimer 3], in series [4], the “hemolysis of porcine erythrocytes” value is “non-hemolytic”.

For the compound `NC[C@H]1O[C@H](O[C@H]2[C@H](O)[C@@H](O[C@H]3O[C@H](CO)[C@@H](O)[C@H](N)[C@H]3O)[C@H](N)C[C@@H]2N)[C@H](N)C[C@@H]1O` [Tobramycin], the “interaction with antibiotics (checkerboard)” value in series [1] (PAO1, all antibiotics tested except tobramycin, vancomycin and colistin) is on record as “not synergistic”. The “FICI with ceftazidime or aztreonam” value in series [1] (setting [13]) is on record as 0.56-0.75. In series [1] (setting [13]), the “tobramycin concentration at which synergy with imipenem was observed” value is ≥ 100 µM. Also, the “FICI with aztreonam, ceftazidime and imipenem” value in series [1] (tobramycin-susceptible MDR isolates) was 0.75; in series [1] (wildtype P. aeruginosa), 0.75-1.00. Further, the MIC in series [5] was 1 µg/mL (≈ 2.14 µM); in series [5] (PAO200 (first column so headed)) it was 1 µg/mL (≈ 2.14 µM); in series [5] (PAO200 (second column so headed)) it was 1 µg/mL (≈ 2.14 µM); in series [2] (setting [9]) it was 1 µg/mL; in series [2] (setting [10]) it was 1 µg/mL (≈ 2.14 µM); in series [2] (setting [11]), 0.25 µg/mL (≈ 0.535 µM). The MIC in series [2] (setting [12]) came to 1 µg/mL (≈ 2.14 µM); in series [7] (Acinetobacter baumannii, ATCC17978, 168 h, read-out: MIC after serial passaging), 512 µg/mL (≈ 1100 µM). Moreover, the FICI with novobiocin in series [3] (tobramycin-susceptible and tobramycin-resistant Gram-negative bacteria strains) was 0.75. Further, the “outer membrane permeabilization (NPN fluorescence)” value in series [6] was “weak fluorescence”. Moreover, the “fold change in MIC” value in series [7] stood at 512 fold.

Consider Colistin, for which the MIC is 8 µg/mL in series [2] (Mutant A (seven serial passages, sub-MICs novobiocin)); 1024 µg/mL in series [2] (Mutant B (seven serial passages, sub-MICs colistin)); 0.031 µg/mL in series [2] (Mutant C (seven serial passages, sub-MICs novobiocin + 7.1 μM compound 1)); 0.063 µg/mL in series [2] (Wild-type A. baumannii ATCC 17978). For the same compound, the “larvae killed (mortality)” value in series [8] was determined as 90%. Also, the “fold change in MIC” value in series [7] stood at 1024 fold.
